Measurements taken from patent US20230414617A1, “PHARMACEUTICAL COMPOSITION COMPRISING ACID-BASE NEUTRALIZATION COMBINATION AND APPLICATION THEREOF” (CHENGDU KUACHANGAOPU MEDICAL TECHNOLOGY CO., LTD., priority 2020, published 2023).
Where a name gives a salt, the structure may show the parent alone. Blank lines part the entries; values can stand above or below the compound they belong to.

Tests used:
breast cancer 4T1 cells [1] = assay: Tumor inhibition, breast cancer 4T1 transplantation tumor (Example 7); format: in vivo, BALB/c mouse; conditions: intratumoral; for Tumor weight (x ± s): 150 ul/mouse, once every 3 days x3, 5th day after end; for Tumor inhibition rate: vs negative control
Protocol: (§1) In the following examples of the present invention, the co-administration pharmaceutical efficacies of drug A and drug B combination administration was determined by ratio q of actual pharmaceutical efficacy/expected pharmaceutical efficacy according to Zhengjun JIN method, as follows.
In an experiment, the test animal was a BALB/c mouse, the modeling cells were breast cancer 4T1 cells, and the transplantation tumor was modeled at 1×10^6 cells/mouse under the skin of the animal's right axilla. […] The negative controls and study drugs were administered intraperitoneally (groups 02, 11 and 15) and intratumorally (other study groups), respectively. All groups were dosed once every 3 days, for a total of 3 times, […], with an injection volume of 150 ul/mouse. On the 5th day after the administration was ended, the animals were euthanized, and the tumor weight was measured after anatomy to the animals. The tumor inhibition rate was calculated from the negative control group.

breast cancer 4T1 cells [2] = assay: Tumor inhibition, breast cancer 4T1 transplantation tumor (Example 6); format: in vivo, BALB/c mouse; conditions: intratumoral; for Tumor weight (x ± s): 150 μl/mouse, once every 3 days x3, 5th day after end; for Tumor inhibition rate: vs negative control
Protocol: as §1
(§2) In an experiment, the test animal was a BALB/c mouse, the modeling cells were breast cancer 4T1 cells, and the transplantation tumor was modeled at 1×10^5 cells/mouse under the skin of the animal's right axilla. Successfully modeled experimental animals (with an average tumor volume of 324 mm^3) were divided into 1 negative control group (group 0) and 9 drug study groups (groups 1-9). […] Each group was administered by intratumoral injection once every 3 days for a total of 3 times, each time at an injection dose of 150 μl/mouse. On the 5th day after the administration was ended, the animals were euthanized, and the tumor weight was measured after anatomy to the animals. The tumor inhibition rate was calculated from the negative control group.

[3] = pH of the study drug aqueous solution; format: physicochemical; conditions: aqueous solution
[4] = system: mouse liver cancer Hepa1-6 cells; assay: Series B: tumor inhibition, Hepa1-6 transplantation tumor in 8-month-old mice (Example 10); format: in vivo; conditions: one intratumoral injection 100 μl/mouse; for r'3d, tumor inhibition rate (tumor volume): day 3; for r'14d, tumor inhibition rate (tumor volume): day 14
Protocol: The animals in series B were modeled in 8-month-old mice as a middle-aged and elderly patient model, which was not consistent with the commonly used young patient model in terms of tumor formation, tumor histomorphology, and body immunocompetence. […] The model animals were randomly divided into 13 groups. Each group was administered once by intratumoral injection according to the drug grouping in Table 11 with an injection volume of 100 μl/mouse.
The actual/expected ratio […] for short-term drug efficacy and the actual/expected ratio q14d for medium-term drug efficacy were calculated based on the drug efficacies (r′3d, […]) at different times (day 3, day 14), respectively.

breast cancer 4T1 cells [5] = assay: Tumor inhibition, breast cancer 4T1 transplantation tumor (Example 8); format: in vivo, BALB/c mouse; conditions: intratumoral; for Tumor weight (x ± s): 150 μl/mouse, once every 3 days x3, 5th day after end; for Tumor inhibition rate: vs negative control
Protocol: as §1
as §2, with “336” for “324”, “16” for “9”, “1-16).” for “1-9).”

breast cancer 4T1 cells [6] = assay: Tumor inhibition, breast cancer 4T1 transplantation tumor (Example 3); format: in vivo, BALB/c mouse; conditions: intratumoral; for Tumor weight (x ± s): 150 μl/mouse, once every 3 days x3, 5th day after end; for Tumor inhibition rate: vs negative control
Protocol: as §1
as §2, with “1×10^6” for “1×10^5”, “axilla.” for “axilla. Successfully modeled experimental animals (with an average tumor volume of 324 mm^3) were divided into 1 negative control group (group 0) and 9 drug study groups (groups 1-9).”, “determined” for “measured”

breast cancer 4T1 cells [7] = assay: Tumor inhibition, breast cancer 4T1 transplantation tumor (Example 4); format: in vivo, BALB/c mice; conditions: intratumoral; for Tumor weight (x ± s): 150 μl/mouse, once every 3 days x3, 5th day after end; for Tumor inhibition rate: vs negative control
Protocol: as §1
In another experiment, the test animal was BALB/c mice, the modeling cells were breast cancer 4T1 cells, and the transplantation tumor was modeled at 1×10^6 cells/mouse under the skin of the animal's right axilla. Successfully modeled experimental animals (average tumor volume 307 mm^3) were randomly divided into 1 negative control group (group 0) and 13 drug study groups (groups 1-13). […] Each group was administered by intratumoral injection once every 3 days for a total of 3 times, each time at an injection dose of 150 μl/mouse. On the 5th day after the administration was ended, the animals were euthanized, and the tumor weight was measured after anatomy to the animals. The tumor inhibition rate was calculated from the negative control group.

breast cancer 4T1 cells [8] = assay: Tumor inhibition, breast cancer 4T1 transplantation tumor (Example 5); format: in vivo, BALB/c mouse; conditions: intratumoral; for Tumor weight (x ± s): once every 3 days x3, 5th day after end; for Tumor inhibition rate: vs negative control
Protocol: as §1
as §2, with “In one” for “In an”, “at 1×10^6” for “at 1×10^5”, “axilla.” for “axilla. Successfully modeled experimental animals (with an average tumor volume of 324 mm^3) were divided into 1 negative control group (group 0) and 9 drug study groups (groups 1-9).”, “[…].” for “150 μl/mouse.”

[9] = study drugs of Example 6 (Table 8)
[10] = study drugs of Example 3 (Table 5)
[11] = study drugs of Example 4 (Table 6)
[12] = study drugs of Example 5 (Table 7)

Compound: CN(C)c1ccc2nc3ccc(=[N+](C)C)cc-3sc2c1 [0.3% methylene blue, methylene blue]
Tumor weight (x ± s) (breast cancer 4T1 cells [1]): 2.11 ± 0.29 g
Tumor inhibition rate (breast cancer 4T1 cells [1]): 3%

Compound: Cl [0.4% hydrochloric acid, hydrochloric acid]
Tumor weight (x ± s) (breast cancer 4T1 cells [2]): 1.65 ± 0.21 g
Tumor inhibition rate (breast cancer 4T1 cells [2]): 21%
pH [3, 9]: 0.1

Compound: O=c1[nH]cc(F)c(=O)[nH]1 [0.25% 5-fluorouracil, 5-fluorouracil]
Tumor weight (x ± s) (breast cancer 4T1 cells [1]): 1.94 ± 0.33 g
Tumor inhibition rate (breast cancer 4T1 cells [1]): 11%

Compound: O=c1[nH]cc(F)c(=O)[nH]1 [1% 5-fluorouracil, 5-fluorouracil]
r'3d, tumor inhibition rate (tumor volume) [4]: 26.8%
r'14d, tumor inhibition rate (tumor volume) [4]: 3.1%
Tumor weight (x ± s) (breast cancer 4T1 cells [5]): 1.10 ± 0.26 g
Tumor inhibition rate (breast cancer 4T1 cells [5]): 51%
Tumor weight (x ± s) (breast cancer 4T1 cells [1]): 1.07 ± 0.26 g
Tumor inhibition rate (breast cancer 4T1 cells [1]): 51%

Compound: [Na+].[OH-] [1% NaOH, sodium hydroxide]
pH [3, 10]: 13.4
Tumor weight (x ± s) (breast cancer 4T1 cells [6]): 1.41 ± 0.23 g
Tumor inhibition rate (breast cancer 4T1 cells [6]): 42%

Compound: CN(C)c1ccc2nc3ccc(=[N+](C)C)cc-3sc2c1 [1% methylene blue, methylene blue]
r'3d, tumor inhibition rate (tumor volume) [4]: 27.8%
r'14d, tumor inhibition rate (tumor volume) [4]: 16.9%
Tumor weight (x ± s) (breast cancer 4T1 cells [5]): 1.73 ± 0.23 g
Tumor inhibition rate (breast cancer 4T1 cells [5]): 23%
Tumor weight (x ± s) (breast cancer 4T1 cells [1]): 1.72 ± 0.27 g
Tumor inhibition rate (breast cancer 4T1 cells [1]): 21%

Compound: CCN(CC)c1ccc(C(=C2C=CC(=[N+](CC)CC)C=C2)c2cc(O)c(S(=O)(=O)O)cc2S(=O)(=O)O)cc1 [1% patent blue, patent blue]
Tumor weight (x ± s) (breast cancer 4T1 cells [5]): 1.71 ± 0.25 g
Tumor inhibition rate (breast cancer 4T1 cells [5]): 24%

Compound: [Cl-].[K+] [2% KCl, potassium chloride]
Tumor weight (x ± s) (breast cancer 4T1 cells [6]): 2.19 ± 0.31 g
Tumor inhibition rate (breast cancer 4T1 cells [6]): 11%

Compound: O=C([O-])O.[Na+] [2% sodium bicarbonate, sodium bicarbonate]
Tumor weight (x ± s) (breast cancer 4T1 cells [7]): 2.10 ± 0.25 g
Tumor inhibition rate (breast cancer 4T1 cells [7]): 7%
pH [3, 11]: 8.2

Compound: O=C([O-])[O-].[Na+].[Na+] [2.8% sodium carbonate, sodium carbonate]
Tumor weight (x ± s) (breast cancer 4T1 cells [7]): 2.10 ± 0.27 g
Tumor inhibition rate (breast cancer 4T1 cells [7]): 7%
pH [3, 11]: 10.9

Compound: CC(=O)O [3% acetic acid, acetic acid]
pH [3, 12]: 2.6
Tumor weight (x ± s) (breast cancer 4T1 cells [8]): 1.85 ± 0.26 g
Tumor inhibition rate (breast cancer 4T1 cells [8]): 15%

Compound: C=C[C@H]1C[N@@]2CC[C@H]1C[C@H]2[C@H](O)c1ccnc2ccc(OC)cc12 [3% quinine monohydrochloride, quinine monohydrochloride]
Tumor weight (x ± s) (breast cancer 4T1 cells [5]; monohydrochloride): 1.71 ± 0.26 g
Tumor inhibition rate (breast cancer 4T1 cells [5]; monohydrochloride): 24%

Compound: Cl [3.5% hydrochloric acid, hydrochloric acid]
Tumor weight (x ± s) (breast cancer 4T1 cells [2]): 0.82 ± 0.18 g
Tumor inhibition rate (breast cancer 4T1 cells [2]): 71%
pH [3, 9]: 0.1

Compound: O=C([O-])O.[Na+] [4% sodium bicarbonate, sodium bicarbonate]
pH [3, 10]: 8.2
pH [3, 12]: 8.2
Tumor weight (x ± s) (breast cancer 4T1 cells [8]): 1.68 ± 0.27 g
Tumor inhibition rate (breast cancer 4T1 cells [8]): 23%
Tumor weight (x ± s) (breast cancer 4T1 cells [6]): 1.87 ± 0.22 g
Tumor inhibition rate (breast cancer 4T1 cells [6]): 23%

Compound: [Na+].[OH-] [5% NaOH, sodium hydroxide]
pH [3, 10]: 14.0
Tumor weight (x ± s) (breast cancer 4T1 cells [6]): 0.28 ± 0.12 g
Tumor inhibition rate (breast cancer 4T1 cells [6]): 72%

Compound: Cl [5% hydrochloric acid, hydrochloric acid]
Tumor weight (x ± s) (breast cancer 4T1 cells [2]): 0.36 ± 0.14 g
Tumor inhibition rate (breast cancer 4T1 cells [2]): 83%
pH [3, 9]: 0.1

Compound: C=C[C@H]1C[N@@]2CC[C@H]1C[C@H]2[C@H](O)c1ccnc2ccc(OC)cc12 [5% quinine dihydrochloride, quinine dihydrochloride]
Tumor weight (x ± s) (breast cancer 4T1 cells [5]; dihydrochloride): 1.46 ± 0.21 g
Tumor inhibition rate (breast cancer 4T1 cells [5]; dihydrochloride): 35%

Compound: O=C([O-])O.[Na+] [5% sodium bicarbonate, sodium bicarbonate]
Tumor weight (x ± s) (breast cancer 4T1 cells [2]): 1.57 ± 0.20 g
Tumor inhibition rate (breast cancer 4T1 cells [2]): 25%
Tumor weight (x ± s) (breast cancer 4T1 cells [7]): 1.79 ± 0.24 g
Tumor inhibition rate (breast cancer 4T1 cells [7]): 21%
pH [3, 11]: 8.2
pH [3, 9]: 8.2

Compound: O=C([O-])[O-].[Na+].[Na+] [7% sodium carbonate, sodium carbonate]
Tumor weight (x ± s) (breast cancer 4T1 cells [7]): 1.81 ± 0.21 g
Tumor inhibition rate (breast cancer 4T1 cells [7]): 20%
pH [3, 11]: 10.8

Compound: CC(=O)[O-].[Na+] [10% sodium acetate, sodium acetate]
pH [3, 12]: 9.3
Tumor weight (x ± s) (breast cancer 4T1 cells [8]): 1.72 ± 0.23 g
Tumor inhibition rate (breast cancer 4T1 cells [8]): 21%

Compound: O=C([O-])O.[Na+] [10% sodium bicarbonate, sodium bicarbonate]
Tumor weight (x ± s) (breast cancer 4T1 cells [7]): 1.58 ± 0.22 g
Tumor inhibition rate (breast cancer 4T1 cells [7]): 30%
pH [3, 10]: 8.1
pH [3, 11]: 8.1
Tumor weight (x ± s) (breast cancer 4T1 cells [6]): 1.65 ± 0.29 g
Tumor inhibition rate (breast cancer 4T1 cells [6]): 32%

Compound: O=C([O-])[O-].[Na+].[Na+] [14% sodium carbonate, sodium carbonate]
Tumor weight (x ± s) (breast cancer 4T1 cells [7]): 1.47 ± 0.24 g
Tumor inhibition rate (breast cancer 4T1 cells [7]): 35%
pH [3, 11]: 10.8

Compound: CC(=O)O [15% acetic acid, acetic acid]
pH [3, 12]: 2.5
Tumor weight (x ± s) (breast cancer 4T1 cells [8]): 0.70 ± 0.18 g
Tumor inhibition rate (breast cancer 4T1 cells [8]): 68%

pH [3, 12]: 6.8
pH ([3]; study drugs of Example 7 (Table 9)): 6.8
Compound: NCC(=O)O [15% glycine, glycine]
Tumor weight (x ± s) (breast cancer 4T1 cells [8]): 1.81 ± 0.26 g
Tumor inhibition rate (breast cancer 4T1 cells [8]): 17%
Tumor weight (x ± s) (breast cancer 4T1 cells [1]): 1.81 ± 0.26 g
Tumor inhibition rate (breast cancer 4T1 cells [1]): 17%

Compound: O=C([O-])O.[Na+] [15% sodium bicarbonate, sodium bicarbonate]
Tumor weight (x ± s) (breast cancer 4T1 cells [2]): 1.29 ± 0.24 g
Tumor inhibition rate (breast cancer 4T1 cells [2]): 38%
pH [3, 9]: 8.1

Compound: CC(=O)O [30% acetic acid, acetic acid]
pH [3, 12]: 2.5
Tumor weight (x ± s) (breast cancer 4T1 cells [8]): 0.41 ± 0.11 g
Tumor inhibition rate (breast cancer 4T1 cells [8]): 81%

Compound: CC(=O)[O-].[Na+] [30% sodium acetate, sodium acetate]
pH [3, 12]: 9.4
Tumor weight (x ± s) (breast cancer 4T1 cells [8]): 1.53 ± 0.21 g
Tumor inhibition rate (breast cancer 4T1 cells [8]): 30%

Compound: dextran40 [2.5% dextran40 aqueous solution]
r'3d, tumor inhibition rate (tumor volume) [4]: 4.2%
r'14d, tumor inhibition rate (tumor volume) [4]: 5.3%

Compound: yeast hydroxymethyl glucan
r'3d, tumor inhibition rate (tumor volume) [4]: 4.5%
r'14d, tumor inhibition rate (tumor volume) [4]: 7.8%
